The results in this text go back to patent US7063857B1, “Use of macrolide compounds for the treatment of dry eye” (Sucampo AG, priority 1999, dated 2006).

One experiment concerns healthy subjects. Description: Tear film breakup time (BUT) after instillation in healthy subjects. To be noted: instilled four times a day for 7 days, healthy subjects (6 per group), right eye, difference between before and 8 days after instillation. In kind it is in vivo, human. On the procedure: A suspension having the same formulation as in Example 1 was produced using FK506 as the active ingredient to give a 0.01% FK506 eye drop (suspension) and 0.1% FK506 eye drop (suspension) as test drugs. The base for the eye drops was used as the control drug. The above-mentioned test drugs and the control drug were instilled four times a day for 7 days to 18 healthy subjects (6 per group) at 8:00, 11:00, 14:00 and 17:00. The tear film breakup time (sec) of the right eye was measured before instillation and 8 days after instillation. The difference between before and after the instillation was calculated, and taken as the mean variation of the tear film breakup time. The tear film breakup time was measured according to the conventional method. After instillation of fluorescein, the tear film was formed on the surface of the eye by nictitation.

Experiment [1] relates to person having subjective symptoms of dry eye. As to the kind of experiment: Instillation of FK506 eye drop in a person with subjective symptoms of dry eye. It counts as in vivo, human. To be noted: 0.06% eye drop (suspension), twice a day for two weeks, one patient. The text has this: Using FK506 as the active ingredient in the present invention, a 0.06% eye drop (suspension) having the following formulation was used as a test drug. A suspension having the following formulation was produced in the same manner as in EP-A-0406791 (Example 6). [table]

Take `C=CC[C@@H]1/C=C(\C)C[C@H](C)C[C@H](OC)[C@H]2O[C@@](O)(C(=O)C(=O)N3CCCC[C@H]3C(=O)O[C@H](/C(C)=C/[C@@H]3CC[C@@H](O)[C@H](OC)C3)[C@H](C)[C@@H](O)CC1=O)[C@H](C)C[C@@H]2OC` [FK506, 17-allyl-1,14-dihydroxy-12-[2-(4-hydroxy-3-methoxycyclohexyl)-1-methylvinyl]-23,25-dimethoxy-13,19,21,27-tetramethyl-11,28-dioxa-4-azatricyclo-[22.3 .1.0^4,9]octacos-18-ene-2,3,10,16-tetraone]: the “Mean variation of tear film breakup time” value with healthy subjects (0.01% FK506 eye drop (suspension)) was “+0.58 sec”; with healthy subjects (0.1% FK506 eye drop (suspension)) it was “+0.75 sec”. In experiment [1], the “subjective symptoms of dry eye (sense of dryness, foreign body and grittiness)” value is on record as “the subjective symptoms disappeared”.
